The results in this text go back to paper PMC11052077, “Discovery of Dolutegravir Derivative against Liver Cancer via Inducing Autophagy and DNA Damage” (Molecules, 2024).

The test system of one series is hepG2 cells. In words: CCK8 cell viability assay, hepG2. Format: cell-based, human. The method, then: This study aimed to assess the anti-proliferative activity of dolutegravir-1,2,3-triazole derivatives on hepatocellular carcinoma cell lines, Huh7 and hepG2. A comprehensive CCK8 assay was employed to evaluate the impact of these compounds on cell viability, with cells treated at a concentration of 20 μM for 48 h. HRM cells, a normal cell line, were included as a control for comparative analysis.
Human hepatocellular carcinoma cell lines Huh7 and hepG2 were obtained from ATCC (Manassas, VA, USA). Cells were cultured in DMEM or RPMI 1640 medium containing 10% FBS and 1% penicillin/streptomycin at 37 °C with a 5% CO2-humidified atmosphere.
(§1) CCK8 assay was used to measure cell viability. Cells with a density of 1 × 10^4 cells/well were seeded on 96-well plates. After adhesion, cells were treated with different diluted compounds or vehicle control DMSO and continued to be cultured for 48 h or 72 h, respectively. Then, CCK8 reagent was added for one hour incubation at 37 °C with 5% CO2. Absorbance was measured using a Microplate spectrophotometer (Thermo, Waltham, MA, USA) at 450 nm. The ratio of cell viability of control was taken as 100%. […] Then, IC50 of compounds were investigated using the prism statistical software 7.0.
Background: Tetrazolium dyes change colour on reduction, which living cells bring about.

Series [1] concerns HRM cells (human renal mesangial cells). In words: in vitro. Conditions: 20 µM. In kind it is cell-based. Here is the method:
This study aimed to assess the anti-proliferative activity of dolutegravir-1,2,3-triazole derivatives on hepatocellular carcinoma cell lines, Huh7 and hepG2. A comprehensive CCK8 assay was employed to evaluate the impact of these compounds on cell viability, with cells treated at a concentration of 20 μM for 48 h. HRM cells, a normal cell line, were included as a control for comparative analysis. […]
as §1

Series [2] deals with Huh7 cells. In words: LIVE/DEAD staining (live and dead cell measurement). In kind it is cell-based, human. Conditions: 5 μM or 10 μM, 24 h. Here is the method: (§2) To further assess the anti-proliferative activity of dolutegravir derivatives, LIVE/DEAD staining was conducted. Huh7 cells were treated with 5 μM or 10 μM of 5e and 5p for 24 h, followed by live and dead cell imaging and quantification. […] This may be attributed to significant cell proliferation suppression at 10 μM concentration, leading to a limited number of viable cells. Furthermore, to validate the impact of dolutegravir derivatives on cell proliferation, a plate clone formation assay was performed. Cells were exposed to various concentrations (0, 2, 4, 8, 16, and 32 μM) of 5e or 5p.
Huh7 cells with a density of 5 × 10^3 cells/well were seeded on 96-well plates. Then, different concentrations (0, 5 μM, 10 μM) of 5e or 5p were treated for 24 h. Cells were then stained with the LIVE/DEAD Assay Kit, observed and photographed using the fluorescent microscope.

The subject of series [3] is Huh7 cells. Description: Plate clone formation assay. Format: cell-based, human. The following applies: 0, 2, 4, 8, 16, 32 μM, 48 h. The method, then: as §2
Huh7 cells were seeded into 6-well plates at a density of 100–500 cells/well. After 10 days culture, cells were added with 5e or 5p at different concentrations (0, 2 μM, 4 μM, 8 μM, 16 μM, 32 μM) for 48 h. Then, cells were fixed by 4% paraformaldehyde and stained by Giemsa dye. An optical microscope was used to photograph cells and the clone numbers were counted.

Series [4] has as its system Huh7 cells. Description: Cell cycle assay, PI staining flow cytometry. In kind it is cell-based, human. Conditions: 8 μM, 48 h. The method, then: To further investigate the effects of compounds 5e and 5p on regulation of the cell cycle, we treated cancer cells with different concentrations of 5e or 5p for 48 h and then analyzed cell cycle distribution using flow cytometry.
Huh7 cells were cultured in 6-well plates with a density of 3 × 10^5 cells/well. Cells were treated with different concentrations (0, 4, and 8 μM for Huh7) of 5e or 5p for 48 h respectively. Then the cell cycle was determined by PI staining using the flow cytometer(Thermo, Beijing, China).

In series [5] the test system is Huh7 cells. In words: Cellular ROS measurement (DCFH-DA). In kind it is cell-based, human. Conditions: 5, 10 and 20 μM, 24 h, Huh7, DCFH-DA staining. Here is the method:
Reactive oxygen species (ROS) play a crucial role in inducing cell death and inhibiting cell growth and proliferation. To investigate the impact of compounds 5e and 5p on ROS generation, various cancer cells were treated with 5e or 5p for 24 h. Subsequently, cells were stained with DCFDA [26], and ROS levels were visualized using a fluorescent microscope (Thermo, Beijing, China).
Huh7 cells were cultured in 96-well plates in a density of 5 × 10^3 cells/well. Different concentrations (0, 5, 10 and 20 μM) of 5e or 5p were added to cells, respectively, for 24 h. After treatment, cells were stimulated with 10 μM DCFH-DA for 30 min in 37 °C and then observed and photographed using the fluorescent microscope.

Another series has as its system γ-H2AX. Description: Western blot, γ-H2AX. The following applies: 2, 4, 8 μM, 48 h, Huh7, western blot. In kind it is cell-based, human. The method, then:
(§3) To elucidate the impact of compounds 5e and 5p on the regulation of cell proliferation, we examined the expression levels of key proteins involved in cell growth processes, encompassing autophagy, apoptosis, cell cycle, and DNA damage (Figure 7).
(§4) Protein expression levels were measured by western blot. Huh7 cells were cultured in 12-well plates and different concentrations (0, 2, 4, 8 μM) of 5e and 5p were added for 48 h. Proteins were extracted from whole cells using radio-immunoprecipitation assay (RIPA) buffer containing a protease/phosphatase inhibitor cocktail (CST). Then, 10–15% sodium dodecyl sulfate polyacrylamide gel electrophoresis and nitrocellulose membranes (Millipore) were employed to separate and collect proteins. Antibodies used include LC3 (3868s, CST), Caspase3 (9662, CST), cyclin D (2922s, CST), cyclin E (20808s, CST), γH2AX (9718s, CST), β-Catenin (9562s, CST), and β-actin (4967s, CST).
A general note: Immunoblotting shows a protein as a band on a membrane.

A further series deals with Caspase3. In words: Western blot, Caspase3. Format: cell-based, human. The following applies: 2, 4, 8 μM, 48 h, Huh7, western blot. The method, then: as §3, §4
In series [6] the test system is Cyclin D, Cyclin E, β-catenin. In words: Western blot, cell cycle-related proteins. In kind it is cell-based, human. The following applies: 2, 4, 8 μM, 48 h, Huh7, western blot. The method, then:
as §3, §4

The subject of a further series is γ-H2AX in Huh7 cells. In words: γ-H2AX immunofluorescence / DNA damage staining, Huh7. In kind it is cell-based, human. Conditions: Huh7, 5, 10, 20 μM, 24 h. The method, then: The phosphorylation of H2AX serves as a highly specific and sensitive molecular marker for DNA damage. Through Western blotting, we have confirmed that compounds 5e and 5p induce DNA damage in Huh7 and HepG2 cells. To further substantiate the inhibitory effect of compounds 5e and 5p on Huh7 cells, immunofluorescence was employed to assess their correlation with γ-H2AX.
The Huh7 cells with a density of 5 × 10^3 cells per well were seeded in a 96-well plate for overnight incubation. Then, different concentrations (0, 5 μM, 10 μM, 20 μM) of the compounds 5e and 5p were added to cells for 24 h. A DNA damage detection kit was used to dye the cells, and cells were observed and photographed by a fluorescent microscope. Cell nucleus is stained blue, and DNA damage is shown as green fluorescence.

On to `COc1c2n(cc(C(=O)Nc3cccc(-c4cn(-c5cccc(C(F)(F)F)c5)nn4)c3)c1=O)CC1OCCC(C)N1C2=O` (stereo not drawn) [Compound 5p], for which, in the series on hepG2 cells (20 μM, hepG2, CCK8, control taken as 100%), the “Cell Viability (100%), 20 μM, 48 h, hepG2” value is recorded as 30.66%. In the series on hepG2 cells (48 h, hepG2, CCK8, read-out: half maximal inhibitory concentration (IC50), hepG2), the IC50 was 4.83 ± 1.17 µM. In addition, the “Cell Viability (100%), 20 μM, 48 h, HRM” value in series [1] is reported as 16.33%. For the same compound, in the series with Huh7 cells [2], the “live Huh7 cells (LIVE/DEAD staining)” value was “decreased with increasing concentration” and the “ratio of dead to live cells” value is “increased compared to the untreated group”. The plate clone formation entry in the series on Huh7 cells [3] is “dose-dependent anti-proliferative activity”. The “effect on S phase of cell cycle” value in the series on Huh7 cells [4] is reported as “clearly decreased phase of S”. Further, the ROS generation entry with Huh7 cells [5] was “significant increase in ROS generation”. In addition, in the series with γ-H2AX, the “γ-H2AX protein expression (DNA damage)” value is reported as “induction of γ-H2AX”. The Caspase3 protein expression entry in the series with Caspase3 was “remained unchanged”. For the same compound, the “Cyclin D, Cyclin E or β-catenin expression” value in series [6] is “no significant differences”. In addition, the “γ-H2AX expression by immunofluorescence” value with γ-H2AX in Huh7 cells is listed as “increased the expression of γ-H2AX”.
